Data as given in ChEMBL document CHEMBL3797190, “Development of 3,5-Dinitrobenzylsulfanyl-1,3,4-oxadiazoles and Thiadiazoles as Selective Antitubercular Agents Active Against Replicating and Nonreplicating Mycobacterium tuberculosis” (J Med Chem, 2016).
Values after ≈ are worked out from the molar mass of the structure shown.

Legend:
[1] = system: Mycobacterium tuberculosis; test: Antimycobacterial activity against Mycobacterium tuberculosis H37Rv after 7 days by HTS assay; format: functional; conditions: 168 h
Mycobacterium kansasii [2] = test: Antimycobacterial activity against Mycobacterium kansasii CNCTC My 6509/96 after 7 days by microdilution method; format: functional; conditions: CNCTC My 6509/96, 168 h
Mycobacterium kansasii [3] = test: Antimycobacterial activity against Mycobacterium kansasii CNCTC My 235/80 after 21 days by microdilution method; format: functional; conditions: CNCTC My 235/80, 504 h
[4] = Cytotoxicity against MDCK2-MDR1 cells assessed as cell viability at 20 uM after 48 hrs by MTS assay; format: ADME, cell-based, Canis lupus familiaris, MDCK-II; conditions: dog, read-out: Activity
[5] = Cytotoxicity against human HuH7 cells assessed as cell viability at 20 uM after 24 hrs by MTS assay; format: cell-based, Huh-7; conditions: read-out: Activity
Mycobacterium avium [6] = test: Antimycobacterial activity against Mycobacterium avium CNCTC My 330/88 after 14 days by microdilution method; format: functional; conditions: CNCTC My 330/88, 336 h
Hepatocyte = test: Cytotoxicity against primary human hepatocytes assessed as cell viability after 48 hrs by MTS assay; format: cell-based
Mycobacterium kansasii [7] = test: Antimycobacterial activity against Mycobacterium kansasii CNCTC My 6509/96 after 14 days by microdilution method; format: functional; conditions: CNCTC My 6509/96, 336 h
Salmonella typhimurium [8] = test: Mutagenic activity in Salmonella typhimurium TA100 assessed as reverse mutation at 30 uM by Ames test; format: toxicity, organism-based; conditions: salmonella enterica subsp. enterica serovar typhimurium
[9] = Cytotoxicity against human HeLa cells assessed as cell viability at 20 uM after 48 hrs by MTS assay; format: cell-based; conditions: read-out: Activity
Mycobacterium kansasii [10] = test: Antimycobacterial activity against Mycobacterium kansasii CNCTC My 235/80 after 14 days by microdilution method; format: functional; conditions: CNCTC My 235/80, 336 h
[11] = system: Mycobacterium tuberculosis; test: Antimycobacterial activity against Mycobacterium tuberculosis CNCTC My 331/88 after 14 days by microdilution method; format: functional; conditions: CNCTC My 331/88, 336 h
[12] = Cytotoxicity against MDCK2-MDR1 cells assessed as cell viability after 48 hrs by MTS assay; format: ADME, cell-based; conditions: Canis lupus familiaris, MDCK-II
Mycobacterium kansasii [13] = test: Antimycobacterial activity against Mycobacterium kansasii CNCTC My 235/80 after 7 days by microdilution method; format: functional; conditions: CNCTC My 235/80, 168 h
Mycobacterium avium [14] = test: Antimycobacterial activity against Mycobacterium avium CNCTC My 330/88 after 21 days by microdilution method; format: functional; conditions: CNCTC My 330/88, 504 h
HeLa [15] = test: Cytotoxicity against human HeLa cells assessed as cell viability after 48 hrs by MTS assay; format: cell-based
[16] = system: Mycobacterium tuberculosis; test: Antimycobacterial activity against Mycobacterium tuberculosis CNCTC My 331/88 after 21 days by microdilution method; format: functional; conditions: CNCTC My 331/88, 504 h
Salmonella typhimurium [17] = test: Mutagenic activity in Salmonella typhimurium TA98 assessed as reverse mutation at 30 uM by Ames test; format: toxicity, organism-based; conditions: salmonella enterica subsp. enterica serovar typhimurium
[18] = Cytotoxicity against human HeLa cells assessed as cell viability at 20 uM after 24 hrs by MTS assay; format: cell-based; conditions: read-out: Activity
[19] = Cytotoxicity against primary human hepatocytes assessed as cell viability at 20 uM after 48 hrs by MTS assay; format: cell-based, Hepatocyte; conditions: read-out: Activity
[20] = Cytotoxicity against MDCK2-MDR1 cells assessed as cell viability after 24 hrs by MTS assay; format: ADME, cell-based; conditions: Canis lupus familiaris, MDCK-II
[21] = Cytotoxicity against MDCK2-MDR1 cells assessed as cell viability at 20 uM after 24 hrs by MTS assay; format: ADME, cell-based, Canis lupus familiaris, MDCK-II; conditions: dog, read-out: Activity
HeLa [22] = test: Cytotoxicity against human HeLa cells assessed as cell viability after 24 hrs by MTS assay; format: cell-based
[23] = Cytotoxicity against human HuH7 cells assessed as cell viability after 24 hrs by MTS assay; format: cell-based; conditions: Huh-7, 24 h
[24] = Cytotoxicity against human HuH7 cells assessed as cell viability at 20 uM after 48 hrs by MTS assay; format: cell-based, Huh-7; conditions: read-out: Activity
Mycobacterium kansasii [25] = test: Antimycobacterial activity against Mycobacterium kansasii CNCTC My 6509/96 after 21 days by microdilution method; format: functional; conditions: CNCTC My 6509/96, 504 h
Trichosporon asahii = test: Antifungal activity against Trichosporon asahii 1188 after 24 to 48 hrs by broth microdilution method; format: functional
Candida tropicalis = test: Antifungal activity against Candida tropicalis 156 after 24 to 48 hrs by broth microdilution method; format: functional
Klebsiella pneumoniae [26] = test: Antibacterial activity against ESBL producing Klebsiella pneumoniae J 14368/08 after 24 to 48 hrs by broth microdilution method; format: functional
[27] = system: Staphylococcus epidermidis; test: Antibacterial activity against Staphylococcus epidermidis H 6966/08 after 24 to 48 hrs by broth microdilution method; format: functional
[28] = system: Trichophyton mentagrophytes; test: Antifungal activity against Trichophyton mentagrophytes 445 after 72 to 120 hrs by broth microdilution method; format: functional
Pichia kudriavzevii = test: Antifungal activity against Candida krusei E28 after 24 to 48 hrs by broth microdilution method; format: functional
Escherichia coli = test: Antibacterial activity against Escherichia coli ATCC 8739 after 24 to 48 hrs by broth microdilution method; format: functional
Candida albicans = test: Antifungal activity against Candida albicans ATCC 44859 after 24 to 48 hrs by broth microdilution method; format: functional
Klebsiella pneumoniae [29] = test: Antibacterial activity against Klebsiella pneumoniae D 11750/08 after 24 to 48 hrs by broth microdilution method; format: functional
Nakaseomyces glabratus = test: Antifungal activity against Candida glabrata 20/I after 24 to 48 hrs by broth microdilution method; format: functional
Staphylococcus aureus [30] = test: Antibacterial activity against methicillin-resistant Staphylococcus aureus H 5996/08 after 24 to 48 hrs by broth microdilution method; format: functional
Staphylococcus aureus [31] = test: Antibacterial activity against Staphylococcus aureus ATCC 6538 after 24 to 48 hrs by broth microdilution method; format: functional
Enterococcus faecalis = test: Antibacterial activity against Enterococcus faecalis J 14365/08 after 24 to 48 hrs by broth microdilution method; format: functional
Pseudomonas aeruginosa = test: Antibacterial activity against Pseudomonas aeruginosa ATCC 9027 after 24 to 48 hrs by broth microdilution method; format: functional
Lichtheimia corymbifera = test: Antifungal activity against Absidia corymbifera 272 after 24 to 48 hrs by broth microdilution method; format: functional
Aspergillus fumigatus = test: Antifungal activity against Aspergillus fumigatus 231 after 24 to 48 hrs by broth microdilution method; format: functional

Compound	IC90 [1]	MIC99 (Mycobacterium kansasii [2])	MIC99 (Mycobacterium kansasii [3])	viability at 48 h, 20 µM [4]	viability at 24 h, 20 µM [5]	MIC99 (Mycobacterium avium [6])	IC50 (Hepatocyte)	MIC99 (Mycobacterium kansasii [7])	viability at 48 h, 20 µM [9]	MIC99 (Mycobacterium kansasii [10])	MIC99 [11]	MIC99 (Mycobacterium kansasii [13])	MIC99 (Mycobacterium avium [14])	MIC99 [16]	viability at 24 h, 20 µM [18]	viability at 48 h, 20 µM [19]	IC50 [20]	viability at 24 h, 20 µM [21]	IC50 (HeLa [22])	IC50 [23]	further results
COC(=O)CSc1nnc(-c2ccc(C(C)(C)C)cc2)s1	0.62 µM																				
COc1cccc(-c2nnc(SCc3cc([N+](=O)[O-])cc([N+](=O)[O-])c3)s2)c1		0.25 µM (≈ 0.101 µg/mL)	0.5 µM (≈ 0.202 µg/mL)	18.5%	86.3%	8 µM (≈ 3.24 µg/mL)	> 20 µM	0.5 µM (≈ 0.202 µg/mL)	17.5%	0.5 µM (≈ 0.202 µg/mL)	≤ 0.03 µM	0.25 µM (≈ 0.101 µg/mL)	16 µM (≈ 6.47 µg/mL)	0.06 µM (≈ 0.0243 µg/mL)	71.2%	121%	> 20 µM	100%	> 20 µM	> 20 µM	Activity (Salmonella typhimurium [8]): Non-toxic; IC50 [12]: 6.4 µM; IC50 (HeLa [15]): 4 µM; Activity (Salmonella typhimurium [17]): Non-toxic; viability at 48 h, 20 µM [24]: 33%; MIC99 (Mycobacterium kansasii [25]): 0.5 µM (≈ 0.202 µg/mL)
COc1ccc(-c2nnc(SCC(=O)NCCc3ccccc3)o2)cc1	0.38 µM																				
O=[N+]([O-])c1cc(CSc2nnc(-c3ccc(Cl)cc3Cl)o2)cc([N+](=O)[O-])c1		0.125 µM (≈ 0.0534 µg/mL)	0.5 µM (≈ 0.214 µg/mL)	27.9%	95.7%	16 µM (≈ 6.84 µg/mL)	> 20 µM	0.25 µM (≈ 0.107 µg/mL)	39.9%	0.5 µM (≈ 0.214 µg/mL)	≤ 0.03 µM	0.125 µM (≈ 0.0534 µg/mL)	32 µM (≈ 13.7 µg/mL)	0.06 µM (≈ 0.0256 µg/mL)	76.4%	81.1%	> 20 µM	106%	> 20 µM	> 20 µM	MIC80 (Trichosporon asahii): > 125 µM; MIC80 (Candida tropicalis): > 125 µM; MIC95 (Klebsiella pneumoniae [26]): > 125 µM; MIC95 [27]: > 125 µM; MIC50 [28]: > 125 µM; MIC80 (Pichia kudriavzevii): > 125 µM; MIC95 (Escherichia coli): > 125 µM; MIC80 (Candida albicans): > 125 µM; MIC95 (Klebsiella pneumoniae [29]): > 125 µM; MIC80 (Nakaseomyces glabratus): > 125 µM; MIC95 (Staphylococcus aureus [30]): > 125 µM; viability at 48 h, 20 µM [24]: 37.7%; MIC99 (Mycobacterium kansasii [25]): 0.5 µM (≈ 0.214 µg/mL); MIC95 (Staphylococcus aureus [31]): > 125 µM; MIC95 (Enterococcus faecalis): > 125 µM; MIC95 (Pseudomonas aeruginosa): > 125 µM; MIC50 (Lichtheimia corymbifera): > 125 µM; MIC50 (Aspergillus fumigatus): > 125 µM
